Reference: US20250205342A1, “IRAK DEGRADERS AND USES THEREOF” (Kymera Therapeutics, Inc., priority 2022, published 2025)

What was measured:
IRAK4 [1] = biological target: T1, IRAK4 (Homo sapiens, UniProt Q9NWZ3); test: hPBMC IRAK4 degradation flow assay (monocytes); format: cell-based; parameters: endogenous in cells; host or cells: human PBMCs (monocytes, CD14 positive gate); details: CD14 positive monocytes, 20 h, read-out: hPBMC monocyte DC50 at 20 h
T1 sequence (Q9NWZ3 1-460): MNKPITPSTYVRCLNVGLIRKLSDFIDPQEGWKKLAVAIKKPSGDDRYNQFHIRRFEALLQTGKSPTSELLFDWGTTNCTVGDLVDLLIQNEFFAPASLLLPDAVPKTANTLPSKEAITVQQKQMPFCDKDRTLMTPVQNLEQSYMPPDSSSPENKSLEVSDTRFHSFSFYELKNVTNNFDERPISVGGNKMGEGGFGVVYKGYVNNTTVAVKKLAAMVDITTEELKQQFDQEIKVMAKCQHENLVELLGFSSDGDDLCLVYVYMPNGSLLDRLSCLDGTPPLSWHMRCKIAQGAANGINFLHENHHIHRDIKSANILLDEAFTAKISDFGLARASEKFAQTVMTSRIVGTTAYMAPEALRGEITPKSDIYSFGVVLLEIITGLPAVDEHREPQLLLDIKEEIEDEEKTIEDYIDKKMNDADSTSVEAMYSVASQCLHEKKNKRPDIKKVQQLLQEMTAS
Method: In the hPBMC IRAK4 degradation flow assay, frozen PBMCs were thawed into RPMI with 10% FBS and allowed to recover. On the same day as thawed, PBMCs were plated in 96 well plate, 90 μL per well. Compound plates were prepared and a 10 point, 5-fold dilution was performed with a final DMSO concentration of 0.1%. Compound 10 μL per well was added, sealed and incubated at 37° C., 5% CO2 for 20 hours (for 4 hour treatment, compounds were prepared and added the following day). Following the treatment incubation period (day 1), 1.6% PFA was added to PBMC plate and placed on plate shaker for 30 seconds and incubated for 10 mins at room temperature. Cells were spun down and washed two times with PBS/0.5% BSA, aspirated to pellet and placed into −80° C. freezer until further processing for flow. On the flow run day, PBMC plates were thawed and samples were transferred to PCR plates. The pre-perm staining cocktail (CD3 Ax488/CD8 BUV805/CD14 BUV395/CD16/56 BV711/CD19 BV785) was added to samples and incubated for 30 minutes at room temperature. Samples were washed two times and permeabilized with methanol for 10 minutes at 4° C. Samples were washed two times and the post-perm staining cocktail (CD4 PE/IRAK4 Ax647 BD #560315) was added and incubated for 30 minutes at room temperature. Samples were washed two times with PBS/BSA and run on a BD LSRFortessa. Mononuclear cells are gated by SSCH/FSCH and single cells. Monocytes are then gated through CD14 positive gate and lymphocytes are gated through CD14 negative gate. To determine absolute DC50 and max degradation values, MFI values were normalized to DMSO max and 20 hour 10 µM min control. Twenty hour dose curves were calculated using a 4 parameter logistic regression curve fit, no constraints (Top doses were removed if hook effects were observed and the bottom was constrained to 0).
(§1) IRAK4 MSD degradation in OCI-LY10 results at 4 and 24 hrs and hPBMC at 20 hrs for compounds of the invention are presented in Table 3. The letter codes for IRAK4 DC50 include: A (<0.1 μM), B (0.1-1.0 μM), C(>1.0-10.0 μM), D (>10.0 μM or not determined).

IRAK4 [2] = biological target: T1, IRAK4; test: IRAK4 degradation in OCI-LY10 (MSD, Meso Scale Discovery); format: cell-based; parameters: endogenous in cells; host or cells: OCI-LY10; details: OCI-LY10 cells, 24 h
Method: Degradation of IRAK4 in OCI-LY10 was quantitatively measured using Meso Scale Discovery technology. OCI-LY10 cells were seeded in 96-well plates (Corning 3799) with a density of 300,000 cells per well in 100 μL fresh media. Compounds were then added to the assay plates with a final top concentration of 1 to 10 μM in a 1:3 dilution series with total of 8 doses. The assay plates were then incubated for 4 to 24 hours at 37° C. under 5% CO2. The assay plates were then centrifuged for 5 minutes and the cell pellets were treated with 100 μL/well RIPA lysis buffer (Boston BioProducts BP-115D) with proteinase inhibitors. To prepare MSD assay plates (Meso Scale Discovery Catalog number L15XA-3), the plates were coated with 2 ug/mL capture antibody (mouse Anti-IRAK4 antibody [2H9], ab119942) in PBS, at 40 μL/well. The plates were then incubated overnight at […], washed 3 times with 150 μL/well TBST buffer (Cell Signaling Technology, Catalog number 9997S) and blocked with 150 μL/well blocking buffer (Meso Scale Discovery Catalog number R^93BA-4). Cell lysates were then added to MSD assay plates and the plates were incubated at room temperature for 1 hour. The plates were then washed 3 times with 150 μL/well TBST buffer and 25 μL/well primary detection antibody (rabbit Anti-IRAK4 antibody [Y279], from Abcam. Catalog number ab32511, 1 μg/mL). The assay plates were then incubated at room temperature for 1 hour, washed 3 times with 150 μL/well TBST buffer and 25 μL/well secondary detection antibody, SULFO-TAG anti-rabbit antibody were added (anti-rabbit antibody from Meso Scale Discovery, Catalog number R^32AB-1, 1 μg/mL). The assay plates were then incubated at room temperature for 1 hour, washed 3 times with 150 μL/well TBST buffer, and 150 μL/well MSD reading buffer (Meso Scale Discovery catalog number R^92TC-2) was added. The plates were then analyzed by a MSD reader (Meso Scale Discovery, Model Quick Plex SQ 120). The data was then analyzed by software Prism 7.0 from GraphPad and the dose-depended IRAK4 degradation were fit using a three-parameter logistic equation to calculate DC50.
as §1

DC50 (IRAK4 [1]) [µM]	DC50 (IRAK4 [2]) [µM]	Compound
> 10	> 10	COc1cc2nn([C@H]3CC[C@H](CNCCCCc4cncc(N5CCC[C@H](C(=O)Nc6ccc(=O)n(CC(=O)O)c6)C5)c4)CC3)cc2cc1NC(=O)c1cccc(C(F)(F)F)n1 [Compound I-25]
> 10	> 10	COc1cc2nn([C@H]3CC[C@H](CNCCOc4cncc(N5CCC[C@H](C(=O)Nc6ccc(=O)n(CC(=O)O)c6)C5)c4)CC3)cc2cc1NC(=O)c1cccc(C(F)(F)F)n1 [Compound I-29]
> 10	> 10	CCOC(=O)Cn1cc(NC(=O)[C@H]2CCCN(c3cncc(CCCCNC[C@H]4CC[C@H](n5cc6cc(NC(=O)c7cccc(C(F)(F)F)n7)c(OC)cc6n5)CC4)c3)C2)ccc1=O [Compound I-31]
> 10	> 10	CCOC(=O)Cn1cc(NC(=O)[C@H]2CCCN(c3cncc(N4CCC(CN(C)C[C@H]5CC[C@H](n6cc(NC(=O)c7cnn8ccc(N9C[C@H]%10C[C@@H]9CO%10)nc78)c(C(F)F)n6)CC5)CC4)c3)C2)ccc1=O [Compound I-34]
> 10	> 10	COc1cc2nn([C@H]3CC[C@H](CNCCOCCOCCOc4cncc(N5CCC[C@H](C(=O)Nc6ccc(=O)n(CC(=O)O)c6)C5)c4)CC3)cc2cc1NC(=O)c1cccc(C(F)(F)F)n1 [Compound I-40]

The remaining lines, values behind:

Compound	DC50 (IRAK4 [1]) [µM]	DC50 (IRAK4 [2]) [µM]
COc1cc2nn([C@H]3CC[C@H](CNCCCCCCc4cncc(N5CCC[C@H](C(=O)Nc6ccc(=O)n(CC(=O)O)c6)C5)c4)CC3)cc2cc1NC(=O)c1cccc(C(F)(F)F)n1 [Compound I-24]	0.1 to 1	> 10
COc1cc2nn([C@H]3CC[C@H](CNCCc4cncc(N5CCC[C@H](C(=O)Nc6ccc(=O)n(CC(=O)O)c6)C5)c4)CC3)cc2cc1NC(=O)c1cccc(C(F)(F)F)n1 [Compound I-26]	> 10	> 10
O=C(O)Cn1cc(NC(=O)[C@H]2CCCN(c3cncc(CCCCCCNC[C@H]4CC[C@H](n5cc(NC(=O)c6cnn7ccc(N8C[C@H]9C[C@@H]8CO9)nc67)c(C(F)F)n5)CC4)c3)C2)ccc1=O [Compound I-27]	> 10	> 10
O=C(O)Cn1cc(NC(=O)[C@H]2CCCN(c3cncc(CCNC[C@H]4CC[C@H](n5cc(NC(=O)c6cnn7ccc(N8C[C@H]9C[C@@H]8CO9)nc67)c(C(F)F)n5)CC4)c3)C2)ccc1=O [Compound I-28]	> 10	> 10
CCOC(=O)Cn1cc(NC(=O)[C@H]2CCCN(c3cncc(CCCCCCNC[C@H]4CC[C@H](n5cc(NC(=O)c6cnn7ccc(N8C[C@H]9C[C@@H]8CO9)nc67)c(C(F)F)n5)CC4)c3)C2)ccc1=O [Compound I-32]	> 10	> 10
CCOC(=O)Cn1cc(NC(=O)[C@H]2CCCN(c3cncc(OCCNC[C@H]4CC[C@H](n5cc6cc(NC(=O)c7cccc(C(F)(F)F)n7)c(OC)cc6n5)CC4)c3)C2)ccc1=O [Compound I-33]	1 to 10	> 10
CCOC(=O)Cn1cc(NC(=O)[C@H]2CCCN(c3cncc(CCNC[C@H]4CC[C@H](n5cc(NC(=O)c6cnn7ccc(N8C[C@H]9C[C@@H]8CO9)nc67)c(C(F)F)n5)CC4)c3)C2)ccc1=O [Compound I-36]	1 to 10	> 10
O=C(O)Cn1cc(NC(=O)[C@H]2CCCN(c3cncc(OCCOCCOCCOCCOCCNC[C@H]4CC[C@H](n5cc(NC(=O)c6cnn7ccc(N8C[C@H]9C[C@@H]8CO9)nc67)c(C(F)F)n5)CC4)c3)C2)ccc1=O [Compound I-37]	1 to 10	> 10
COc1cc2nn([C@H]3CC[C@H](CNCCOCCOCCOCCOCCOc4cncc(N5CCC[C@H](C(=O)Nc6ccc(=O)n(CC(=O)O)c6)C5)c4)CC3)cc2cc1NC(=O)c1cccc(C(F)(F)F)n1 [Compound I-38]	1 to 10	> 10
CCOC(=O)Cn1cc(NC(=O)[C@H]2CCCN(c3cncc(OCCOCCOCCNC[C@H]4CC[C@H](n5cc6cc(NC(=O)c7cccc(C(F)(F)F)n7)c(OC)cc6n5)CC4)c3)C2)ccc1=O [Compound I-41]	> 10	> 10
